Results reported in article PMC9732821, “Neurotrophic Activity and Its Modulation by Zinc Ion of a Dimeric Peptide Mimicking the Brain-Derived Neurotrophic Factor N-Terminal Region” (ACS Chemical Neuroscience, 2022).

Test system: ERK
Assay: ERK phosphorylation in HEK 293 cells, which do not express TrkB
Assay type: cell-based, human
Conditions: increasing concentrations, 10 min, unstimulated control 100%
Description: Figure S1. Evaluation of d-bdnf mechanism of action. A) ERK phosphorylation levels detected in HEK293T cells, after stimulation (10 min) with increasing concentrations of BDNF (white columns) or d-bdnf (grey columns) normalized to the unstimulated control (CTRL, black column) set to 100%.
Dunnett’s multiple comparison test. B) ERK phosphorylation levels detected in differentiated SH-SY5Y cells, after stimulation (10 min) with a combination of a single concentration of BDNF (1 nM referred to monomeric form) with increasing concentrations (10 nM-100 µM) of d-bdnf (left); B) a combination of a single concentration of d-bdnf (10 µM) with increasing concentrations (0.074 nM – 10 nM) of BDNF (right). […] C) Representative confocal fluorescence images of SH-SY5Y cells differentiated with retinoic acid (RA) and treated acutely with BDNF, d-bdnf or a combination of the two. […] Scale bar: 50 µm.D) Scatter dot plot of the mean ± SEM fluorescence intensity of the analyzed fields (nfields) for the different samples (NT: nfields=9 and total ncells= 285; BDNF: nfields=10 and total ncells= 297; d-bdnf: nfields=10 and total ncells= 255 cells; BDNF+d-bdnf: nfields=10 and total ncells= 253 cells; **p<0.01 according to […]
HSDPARRGELSV-NH2 (m-bdnf): Rt = 25.2 min. ESI-MS: calculated for C54H91N21O18: 1322.4 […]
SRAGPHLRDVSE-NH2 (s-bdnf): Rt = 27.4 min. ESI-MS: calculated for C54H91N21O18: 1322.4 […]

Molecule	ERK phosphorylation in HEK 293 cells
HSDPARRGELSVC-C-VSLEGRRAPDSH (disulfide) [d-bdnf]	not significantly different
brain-derived neurotrophic factor (protein, UniProt P23560 1-247, looked up, full-length, full-length human BDNF produced recombinantly in Escherichia coli) MTILFLTMVISYFGCMKAAPMKEANIRGQGGLAYPGVRTHGTLESVNGPKAGSRGLTSLADTFEHVIEELLDEDQKVRPNEENNKDADLYTSRVMLSSQVPLEPPLLFLLEEYKNYLDAANMSMRVRRHSDPARRGELSVCDSISEWVTAADKKTAVDMSGGTVTVLEKVPVSKGQLKQYFYETKCNPMGYTKEGCRGIDKRHWNSQCRTTQSYVRALTMDSKKRIGWRFIRIDTSCVCTLTIKRGR	not significantly different
